26 molecules from US20260159525A1, “TRICYCLIC HETEROCYCLES” (Merck Patent GmbH, priority 2021, published 2026) can be followed below.

The first experiment has as its system YAP-TEAD interaction. As to the kind of experiment: SK-HEP-1 reporter assay (8x TEAD responsive elements driving NanoLuc luciferase). It counts as cell-based. The note with it: Homo sapiens, SK-HEP1, SK-HEP-1 cells, 24 hour incubation, group symbols. The method, then: To identify inhibitors of YAP-TEAD interaction, 8× TEAD responsive elements driving the NanoLuc® luciferase gene were stably integrated into SK-HEP-1 cells (ECACC #: 91091816).
For the assay, cells were treated in duplicates with the test compounds in a 10-point dose, with the top concentration starting at 30 μM (final concentration in assay). After a 24 hour incubation at 37° C., 95% rH, and 5% CO2, a luciferase substrate/lysis reagent mix (NanoGlo™, Promega) was added to the cells, allowing the quantification of cellular luciferase activity.
Cell Media: The cells were cultured in the following media: MEM, +10% FBS, +1× GlutaMAX, +1 mM Sodium-Pyruvate, +100 μM Non-essential amino acids, +0.1 mg/ml Hygromycin. The media used for the assay was: MEM (w/o Phenol Red), +10% FBS, +1× GlutaMAX, +1 mM Sodium-Pyruvate, +100 μM Non-essential amino acids, +0.5% Pen/Strep
Reagents: The reagents used are listed below:
Cell culture: The cells were examined using an inverted microscope to check for health and cell density. To dissociate adherent cells, the monolayer of cells was washed once with pre-warmed PBS. After removing the PBS, 3 ml pre-warmed Accutase® was added to a F75 flask, dispersed evenly and the flask was allowed to sit in incubator for ˜4-5 minutes.
When a single cell suspension was obtained, 7 ml of prewarmed growth media was added and resuspended with the cells. The cell suspension was transferred to a sterile 15 ml conical centrifuge tube, and spun for 5 min at 300×g, RT. The supernatant was discarded and the pellet was resuspended in 10 ml of pre-warmed growth media.
The total cell count was determined, and 20 μl of the desired cell number was added to each well of a 384 well plate using a Multidrop Combi. The plates were then incubated for 24 hours at 37° C., 95% rH, and 5% CO2.
Compound treatment: 24 hours after seeding, the cells were treated with compounds.
A 1:333 dilution of compounds, diluted in DMSO, was made to get a final concentration of 0.3% DMSO per well. To transfer the compounds to the assay plate, 120 nl was shot from Labcyte low dead volume plates to the cell plates containing 20 μl media/well with the ECHO 555 liquid handling system. After treatment, the cells were fed with 20 μl fresh pre-warmed assay media using a Multidrop combi.
The assay plates were then incubated for another 24 h at 37° C., 95% rH, and 5% CO2.
Luciferase readout: 24 h after treatment, the plates were taken out of the incubator and were allowed to equilibrate to RT. 30 μl of NanoGlo® reagent was added to the plates in the dark. Plates were shaken for 20 min on a Teleshake (˜1500 rpm) in the dark. The luminescence was then measured using an EnVision microplate reader. The IC50 values were generated using Genedata Screener®.
Usually IC50 stands for the concentration that inhibits the measured activity by half. Read a low IC50 as higher potency. As for `COCC[C@H](CO)NC(=O)c1cc2c3cn(C)nc3n(-c3ccc(C(F)(F)F)cc3)c2s1` (single isomer, unassigned) [Compound 58], the concentration for half-maximal inhibition (IC50) was greater than 10 µM.

For the molecule `Cn1nc2c3sc(C(=O)NC4CC4)cc3n(-c3ccc(C(F)(F)F)cc3)c2n1` [Compound 6, N-cyclopropyl-4-methyl-7-[4-(trifluoromethyl)phenyl]-11-thia-3,4,5,7-tetraazatricyclo[6.3.0.0^2,6]undeca-1(8),2,5,9-tetraene-10-carboxamide], the half-inhibitory concentration (IC50) is 0.1 to 10 µM.

Molecule `Cn1nc2c3sc(C(=O)NCCO)cc3n(-c3ccc(C(F)(F)F)cc3)c2n1` [Compound 7, N-(2-hydroxyethyl)-4-methyl-7-[4-(trifluoromethyl)phenyl]-11-thia-3,4,5,7-tetraazatricyclo[6.3.0.0^2,6]undeca-1(8),2,5,9-tetraene-10-carboxamide] came in with an IC50 greater than 10 µM.

Consider `Cn1nc2c3sc(C(=O)N4CCC(O)C4)cc3n(-c3ccc(C(F)(F)F)cc3)c2n1` (centres unmarked) [Compound 9, 1-{4-methyl-7-[4-(trifluoromethyl)phenyl]-11-thia-3,4,5,7-tetraazatricyclo[6.3.0.0^2,6]undeca-1(8),2,5,9-tetraene-10-carbonyl}pyrrolidin-3-ol], for which the IC50 fell in the range of 0.1 to 10 µM.

The molecule `Cn1cc2c3sc(C(=O)NCCO)cc3n(-c3ccc(C(F)(F)F)cc3)c2n1` [Compound 13, N-(2-hydroxyethyl)-10-methyl-7-[4-(trifluoromethyl)phenyl]-3-thia-7,9,10-triazatricyclo[6.3.0.0^2,6]undeca-1(11),2(6),4,8-tetraene-4-carboxamide] showed an IC50 greater than 10 µM.

For `Cn1cc2c3sc(C(=O)N[C@@H](CO)c4ccccn4)cc3n(-c3ccc(C(F)(F)F)cc3)c2n1` [Compound 14, N-[(1R)-2-hydroxy-1-(pyridin-2-yl)ethyl]-10-methyl-7-[4-(trifluoromethyl)phenyl]-3-thia-7,9,10-triazatricyclo[6.3.0.0^2,6]undeca-1(11),2(6),4,8-tetraene-4-carboxamide], the IC50 is greater than 10 µM.

In turn, `C[C@H](CO)NC(=O)c1cc2c(s1)c1cn(C)nc1n2-c1ccc(C(F)(F)F)cc1` [Compound 16, N-[(2R)-1-hydroxypropan-2-yl]-10-methyl-7-[4-(trifluoromethyl)phenyl]-3-thia-7,9,10-triazatricyclo[6.3.0.0^2,6]undeca-1(11),2(6),4,8-tetraene-4-carboxamide] had an IC50 greater than 10 µM.

With `CNC(=O)c1cc2c(s1)c1nc(C)sc1n2-c1ccc(C(F)(F)F)cc1` [Compound 23, N,4-dimethyl-7-[4-(trifluoromethyl)phenyl]-5,11-dithia-3,7-diazatricyclo[6.3.0.0^2,6]undeca-1(8),2(6),3,9-tetraene-10-carboxamide], the 50% inhibitory concentration (IC50) was greater than 10 µM.

In turn, `Cn1cc2c3sc(C(=O)O)cc3n(CCC(C)(C)C(F)(F)F)c2n1` [Compound 24, 10-methyl-7-(4,4,4-trifluoro-3,3-dimethylbutyl)-3-thia-7,9,10-triazatricyclo[6.3.0.0^2,6]undeca-1(11),2(6),4,8-tetraene-4-carboxylic acid] returned an IC50 of 0.1 to 10 µM.

Turning to `CNC(=O)c1cc2c(s1)c1nc(C)sc1n2-c1ccc(OC(F)(F)F)cc1` [Compound 26, N,4-dimethyl-7-[4-(trifluoromethoxy)phenyl]-5,11-dithia-3,7-diazatricyclo[6.3.0.0^2,6]undeca-1(8),2(6),3,9-tetraene-10-carboxamide], the IC50 fell in the range of 0.1 to 10 µM.

In the case of `Cn1nc2c3sc(C(N)=O)cc3n(-c3ccc(C(F)(F)F)cc3)c2n1` [Compound 28, 4-methyl-7-[4-(trifluoromethyl)phenyl]-11-thia-3,4,5,7-tetraazatricyclo[6.3.0.0^2,6]undeca-1(8),2,5,9-tetraene-10-carboxamide], the IC50 is greater than 10 µM.

In turn, `CNC(=O)c1cc2c(s1)c1nn(C)nc1n2-c1ccc(OC(F)(F)F)cc1` [Compound 29, N,4-dimethyl-7-[4-(trifluoromethoxy)phenyl]-11-thia-3,4,5,7-tetraazatricyclo[6.3.0.0^2,6]undeca-1(8),2,5,9-tetraene-10-carboxamide] had a 50% inhibitory concentration (IC50) greater than 10 µM.

Consider `Cn1nc2c3sc(C(=O)NC4CC4)cc3n(-c3ccc(OC(F)(F)F)cc3)c2n1` [Compound 30, N-cyclopropyl-4-methyl-7-[4-(trifluoromethoxy)phenyl]-11-thia-3,4,5,7-tetraazatricyclo[6.3.0.0^2,6]deca-1(8),2,5,9-tetraene-10-carboxamide], for which the concentration for half-maximal inhibition (IC50) was 0.1 to 10 µM.

Regarding `Cn1nc2c3sc(C(N)=O)cc3n(-c3ccc(OC(F)(F)F)cc3)c2n1` [Compound 38, 4-methyl-7-[4-(trifluoromethoxy)phenyl]-11-thia-3,4,5,7-tetraazatricyclo[6.3.0.0^2,6]undeca-1(8),2,5,9-tetraene-10-carboxamide], the IC50 was in the range of 0.1 to 10 µM.

Take `CNC(=O)c1cc2c(s1)c1cn(C)nc1n2C[C@H]1C[C@@H](C(F)(F)F)C1` [Compound 39, N,10-dimethyl-7-{[(1s,3s)-3-(trifluoromethyl)cyclobutyl]methyl}-3-thia-7,9,10-triazatricyclo[6.3.0.0^2,6]undeca-1(11),2(6),4,8-tetraene-4-carboxamide]: the IC50 fell in the range of 0.1 to 10 µM.

For `Cn1cc2c3cc(C(=O)O)sc3n(-c3ccc(C(F)(F)F)cn3)c2n1` [Compound 53, 4-methyl-7-[5-(trifluoromethyl)pyridin-2-yl]-9-thia-4,5,7-triazatricyclo[6.3.0.0^2,6]undeca-1(8),2,5,10-tetraene-10-carboxylic acid], the IC50 lay in the range of 0.001 to 0.01 µM.

`Cn1cc2c3cc(C(=O)O)sc3n(-c3ccc(OC(F)(F)F)cc3)c2n1` [Compound 54, 4-methyl-7-[4-(trifluoromethoxy)phenyl]-9-thia-4,5,7-triazatricyclo[6.3.0.0^2,6]undeca-1(8),2,5,10-tetraene-10-carboxylic acid] showed a half-inhibitory concentration (IC50) of 0.001 to 0.01 µM.

The molecule `Cn1cc2c3cc(C(=O)NCC4CNC4)sc3n(-c3ccc(C(F)(F)F)cc3)c2n1` [Compound 60, N-[(azetidin-3-yl)methyl]-4-methyl-7-[4-(trifluoromethyl)phenyl]-9-thia-4,5,7-triazatricyclo[6.3.0.0^2,6]undeca-1(8),2,5,10-tetraene-10-carboxamide] showed an IC50 of 0.1 to 10 µM.

As to `Cn1cc2c3cc(C(=O)O)sc3n(-c3ccc(C(F)(F)F)nc3)c2n1` [Compound 81, 4-methyl-7-[6-(trifluoromethyl)pyridin-3-yl]-9-thia-4,5,7-triazatricyclo[6.3.0.0^2,6]undeca-1(8),2,5,10-tetraene-10-carboxylic acid], the 50% inhibitory concentration (IC50) lay in the range of 0.01 to 0.1 µM.

Staying with this experiment, now noted: Homo sapiens, SK-HEP1, SK-HEP-1 cells, 24 hour incubation, number, or n.d. (x) = not detectable below threshold x.
As to `Cn1cc2c3cc(C(=O)NC(CO)C4CCC4)sc3n(-c3ccc(C(F)(F)F)cc3)c2n1` (racemic) [Compound 57, N-(1-cyclobutyl-2-hydroxyethyl)-4-methyl-7-[4-(trifluoromethyl)phenyl]-9-thia-4,5,7-triazatricyclo[6.3.0.0^2,6]undeca-1(8),2,5,10-tetraene-10-carboxamide], the IC50 is greater than 9.5 µM.

Regarding `Cn1cc2c3cc(C(=O)N[C@@H](CO)C4CCC4)sc3n(-c3ccc(C(F)(F)F)cc3)c2n1` (single isomer, unassigned) [Compound 55], the 50% inhibitory concentration (IC50) is greater than 9.5 µM.

Take `Cn1cc2c3cc(C(=O)N[C@H](CO)C4CCC4)sc3n(-c3ccc(C(F)(F)F)cc3)c2n1` (single isomer, unassigned) [Compound 56]: the IC50 is greater than 9.5 µM.

As to `Cn1cc2c3cc(C(=O)NC[C@@H](O)CO)sc3n(-c3ccc(C(F)(F)F)cc3)c2n1` (single isomer, unassigned) [Compound 128], the IC50 is greater than 30 µM.

`Cn1cc2c3cc(C(=O)NC[C@H](O)CO)sc3n(-c3ccc(C(F)(F)F)cc3)c2n1` (single isomer, unassigned) [Compound 129] yielded a half-maximal inhibitory concentration (IC50) greater than 0.95 µM.

The molecule `Cn1ccc([C@H](CO)NC(=O)c2cc3c4cn(C)nc4n(-c4ccc(C(F)(F)F)cc4)c3s2)n1` (single isomer, unassigned) [Compound 131] showed a half-maximal inhibitory concentration (IC50) greater than 0.095 µM.

Regarding `CC(=O)NCCOCCOCCNC(=O)c1cc2c3cn(C)nc3n(-c3ccc(C(F)(F)F)cc3)c2s1` [Compound 73, N-(2-{2-[2-({4-methyl-7-[4-(trifluoromethyl)phenyl]-9-thia-4,5,7-triazatricyclo[6.3.0.0^2,6]undeca-1(8),2,5,10-tetraen-10-yl}formamido)ethoxy]ethoxy}ethyl)acetamide], the IC50 is greater than 3 µM.
